Read-outs that look alike come from different tables or passages of the source.
Columns and labels:
[1] = system: cellular H3K36me2 level in thyroid carcinoma cell line CGTH-W-1 (NSD2 E1099K); experiment: H3K36me2 cellular ELISA assay in CGTH-W-1 line; format: cell-based; conditions: Homo sapiens, CGTH-W-1, 72 h, read-out: H3K36me2 ELISA in CGTH-W-1
Outline: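 CGTH-W-1 thyroid carcinoma cells (NSD2 E1099K gain-of-function) exposed to compound for 72 hours. Histone-bound plates probed for H3K36me2 and total H3 by chemiluminescent ELISA. Viability checked on a parallel plate with CellTiter-Glo.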

[2] = system: cellular H3K36me2 level in multiple myeloma cell line KMS11 (t(4;14)+); experiment: H3K36me2 cellular ELISA assay in KMS11-Par line; format: cell-based; conditions: Homo sapiens, KMS-11, ELISA, read-out: H3K36me2 ELISA in KMS11-Par
Outline: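 KMS11 cells were seeded a day ahead at 1,250 per well in Opti-MEM with B-27/N2, then treated with compound for 72 h. Histones were acid-extracted with 0.4M HCl, and H3K36me2 and total H3 were read by chemiluminescent ELISA. Viability was checked with CellTiter-Glo on a parallel plate in maintenance media.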

NSD2 [1-1365] = NSD2 [1-1365] (Homo sapiens (Human), UniProt O96028); experiment: LC-MS/MS-based NSD2 enzymatic assay (SAH production); format: biochemical; conditions: read-out: NSD2 IC50
Chain of NSD2 [1-1365] (O96028 whole entry): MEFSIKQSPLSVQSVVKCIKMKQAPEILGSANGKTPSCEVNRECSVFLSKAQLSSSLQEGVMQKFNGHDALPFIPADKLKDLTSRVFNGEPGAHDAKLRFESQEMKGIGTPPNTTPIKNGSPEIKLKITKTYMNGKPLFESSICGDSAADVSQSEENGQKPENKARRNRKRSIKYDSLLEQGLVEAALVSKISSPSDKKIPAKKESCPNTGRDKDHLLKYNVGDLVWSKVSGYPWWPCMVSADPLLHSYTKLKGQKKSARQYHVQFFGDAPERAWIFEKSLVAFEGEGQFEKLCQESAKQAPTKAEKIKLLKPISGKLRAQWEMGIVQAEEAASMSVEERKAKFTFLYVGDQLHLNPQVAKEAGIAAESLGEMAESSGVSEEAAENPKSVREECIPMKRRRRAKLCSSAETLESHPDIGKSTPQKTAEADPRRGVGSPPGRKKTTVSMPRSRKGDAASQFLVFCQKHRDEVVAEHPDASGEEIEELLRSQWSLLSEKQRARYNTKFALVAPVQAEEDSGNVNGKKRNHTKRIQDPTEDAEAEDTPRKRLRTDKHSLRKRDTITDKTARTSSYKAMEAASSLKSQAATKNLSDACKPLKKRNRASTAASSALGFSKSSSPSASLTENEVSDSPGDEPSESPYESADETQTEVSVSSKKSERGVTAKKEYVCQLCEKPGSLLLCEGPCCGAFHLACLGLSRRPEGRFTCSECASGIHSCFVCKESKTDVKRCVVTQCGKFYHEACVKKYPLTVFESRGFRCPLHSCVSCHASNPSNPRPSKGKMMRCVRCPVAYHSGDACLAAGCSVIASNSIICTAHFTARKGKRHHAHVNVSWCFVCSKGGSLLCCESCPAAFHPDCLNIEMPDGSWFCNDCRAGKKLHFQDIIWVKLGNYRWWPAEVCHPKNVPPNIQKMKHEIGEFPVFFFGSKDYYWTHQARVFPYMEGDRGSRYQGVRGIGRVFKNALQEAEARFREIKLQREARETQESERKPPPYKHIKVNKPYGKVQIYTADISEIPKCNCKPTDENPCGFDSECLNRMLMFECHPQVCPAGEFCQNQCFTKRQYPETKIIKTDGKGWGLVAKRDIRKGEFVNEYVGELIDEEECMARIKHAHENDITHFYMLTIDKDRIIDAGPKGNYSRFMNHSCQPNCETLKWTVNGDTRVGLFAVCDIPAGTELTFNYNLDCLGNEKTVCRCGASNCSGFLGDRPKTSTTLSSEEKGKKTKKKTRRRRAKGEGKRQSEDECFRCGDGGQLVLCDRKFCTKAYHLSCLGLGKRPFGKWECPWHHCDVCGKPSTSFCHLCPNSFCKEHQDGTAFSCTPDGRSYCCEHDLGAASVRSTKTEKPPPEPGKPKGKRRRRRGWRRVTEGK
Outline: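 Full-length NSD2 [1-1365] (8 nM final) with 1 μM SAM and 400 nM mouse-liver nucleosome in Tris pH 8.0 buffer; inhibitor preincubated 20 min with enzyme/SAM before nucleosome addition. Reaction 90 min at room temperature, TFA-quenched; SAH quantified by LC-MS/MS against d4-SAH internal standard and SAH standard curve.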

[3] = KMS11-Par line (t(4;14)+), 72 hours treatment
[4] = NSD2 biochemical activity, class symbols

SMILES | IC50 [1] | IC50 ([2]; KMS11-Par line, 72 hours) | IC50 (NSD2 [1-1365]) | IC50 [2, 3] | IC50 (NSD2 [1-1365]; [4])
COc1cnc(-c2cc(Cn3cnc4c(N)ncnc43)c(N3CCC[C@](N)(c4cccc(Cl)n4)C3)cn2)cc1F [Example 243, (R)-9-((5-(3-amino-3-(6-chloropyridin-2-yl)piperidin-1-yl)-4′-fluoro-5′-methoxy-[2,2′-bipyridin]-4-yl)methyl)-9H-purin-6-amine] | 541 nM | 2440 nM | 1 to 10 nM | – | –
Cc1cc(F)c(F)cc1-c1cc(Cn2cnc3c(N)ncnc32)c(N2CCC[C@](N)([C@@H](O)C(F)F)C2)cn1 [Example 117, (R)-1-((R)-3-amino-1-(4-((6-amino-9H-purin-9-yl)methyl)-6-(4,5-difluoro-2-methylphenyl)pyridin-3-yl)piperidin-3-yl)-2,2-difluoroethan-1-ol] | 67 nM | – | – | 1320 nM | 1 to 10 nM
Nc1ncnc2c1ncn2Cc1cc(-c2ccc(F)c(F)c2)ncc1N1CCC[C@](N)([C@H](F)c2ccccn2)C1 [Example 91, 9-((5-((R)-3-amino-3-((S)-fluoro(pyridin-2-yl)methyl)piperidin-1-yl)-2-(3,4-difluorophenyl)pyridin-4-yl)methyl)-9H-purin-6-amine] | 121 nM | – | – | 890 nM | 1 to 10 nM
CCc1nccc([C@@]2(N)CCCN(c3cnc(-c4ccc(F)c(F)c4)cc3Cn3cnc4c(N)ncnc43)C2)n1 [Example 251, (R)-9-((5-(3-amino-3-(2-ethylpyrimidin-4-yl)piperidin-1-yl)-2-(3,4-difluorophenyl)pyridin-4-yl)methyl)-9H-purin-6-amine] | 440 nM | 1520 nM | 10 to 1000 nM | – | –
CC(C)(C)C(=O)[C@@]1(N)CCCN(c2cnc(-c3ccc(F)c(F)c3)cc2Cn2cnc3c(N)ncnc32)C1 [Example 109, (R)-1-(3-amino-1-(4-((6-amino-9H-purin-9-yl)methyl)-6-(3,4-difluorophenyl)pyridin-3-yl)piperidin-3-yl)-2,2-dimethylpropan-1-one] | 2090 nM | – | – | 2730 nM | 10 to 1000 nM
Cc1nc([C@@]2(N)CCCN(c3cnc(-c4ccc(F)cc4)cc3Cn3cnc4c(N)ncnc43)C2)ccc1F [Example 190, (R)-9-((5-(3-amino-3-(5-fluoro-6-methylpyridin-2-yl)piperidin-1-yl)-2-(4-fluorophenyl)pyridin-4-yl)methyl)-9H-purin-6-amine] | 258 nM | 687 nM | 1 to 10 nM | – | –
Nc1ncnc2c1ncn2Cc1cc(-c2ccc(F)c(F)c2)ncc1N1CCCC(N)(C(=O)C2CCC2)C1 (stereo not drawn) [Example 105, (3-amino-1-(4-((6-amino-9H-purin-9-yl)methyl)-6-(3,4-difluorophenyl)pyridin-3-yl)piperidin-3-yl)(cyclobutyl)methanone] | 67 nM | – | – | 140 nM | 10 to 1000 nM
COc1ccc(-c2cc(Cn3cnc4c(N)ncnc43)c(N3CCC[C@](N)(c4cccc(Cl)n4)C3)cn2)cc1F [Example 213, (R)-9-((5-(3-amino-3-(6-chloropyridin-2-yl)piperidin-1-yl)-2-(3-fluoro-4-methoxyphenyl)pyridin-4-yl)methyl)-9H-purin-6-amine] | 258 nM | 387 nM | 1 to 10 nM | – | –
CC[C@H](C)C(=O)[C@@]1(N)CCCN(c2cnc(-c3ccc(F)c(F)c3)cc2Cn2cnc3c(N)ncnc32)C1 [Example 101, (S)-1-((R)-3-amino-1-(4-((6-amino-9H-purin-9-yl)methyl)-6-(3,4-difluorophenyl)pyridin-3-yl)piperidin-3-yl)-2-methylbutan-1-one] | 40 nM | – | – | 34 nM | 1 to 10 nM
Nc1ncnc2c1ncn2Cc1cc(-c2ccc(F)c(F)c2)ncc1N1CCC[C@](N)(c2cccc(F)n2)C1 [Example 201, (R)-9-((5-(3-amino-3-(6-fluoropyridin-2-yl)piperidin-1-yl)-2-(3,4-difluorophenyl)pyridin-4-yl)methyl)-9H-purin-6-amine] | 123 nM | 286 nM | 1 to 10 nM | – | –

Reference: patent US11420970B1 (NOVARTIS AG, priority 2019, dated 2022)
